Experimental data as given in the CheMixHub viscosity set.
± gives the uncertainty stated by the source.

Assay: xn = mol fraction of the nth substance listed

NC1CCCCC1 + CCCCOC(C)=O
298.15 K, 101 kPa
Conditions	viscosity [mPa·s]
x1 = 0.1151	0.6149 ± 0.0053
x1 = 0.2265	0.6836 ± 0.0058
x1 = 0.3342	0.8301 ± 0.0069
x1 = 0.4385	1.032 ± 0.0083
x1 = 0.5394	1.253 ± 0.0098
x1 = 0.6373	1.455 ± 0.011
x1 = 0.7321	1.618 ± 0.012
x1 = 0.8241	1.734 ± 0.013
x1 = 0.9134	1.779 ± 0.013

CC(O)CO (configuration not stated) + CCCCCCCO
Conditions	viscosity [mPa·s]
303.15 K, 101 kPa, x2 = 0.6097	7.655 ± 0.1

NC1CCCCC1 + CCC(C)=O
298.15 K, 101 kPa
Conditions	viscosity [mPa·s]
x1 = 0.0747	0.5316 ± 0.0048
x1 = 0.1538	0.6621 ± 0.0057
x1 = 0.2376	0.8418 ± 0.007
x1 = 0.3265	1.042 ± 0.0084
x1 = 0.421	1.235 ± 0.0097
x1 = 0.5217	1.449 ± 0.011
x1 = 0.6291	1.625 ± 0.012
x1 = 0.7441	1.781 ± 0.013
x1 = 0.8674	1.823 ± 0.014
x2 = 0.1326	1.574 ± 0.011
x2 = 0.2559	1.409 ± 0.01
x2 = 0.3708	1.257 ± 0.009
x2 = 0.4783	1.115 ± 0.008
x2 = 0.579	0.978 ± 0.007
x2 = 0.6735	0.846 ± 0.006
x2 = 0.7624	0.719 ± 0.005
x2 = 0.8462	0.599 ± 0.004
x2 = 0.9252	0.481 ± 0.004

ClC=C(Cl)Cl + CCC(C)O
303.15 K, 101.3 kPa
Conditions	viscosity [mPa·s]
x1 = 0.1104	1.721 ± 0.022
x1 = 0.213	1.3 ± 0.017
x1 = 0.312	1.042 ± 0.014
x1 = 0.4086	0.881 ± 0.012
x1 = 0.5218	0.761 ± 0.011
x1 = 0.6132	0.695 ± 0.01
x1 = 0.7094	0.647 ± 0.009
x1 = 0.8124	0.606 ± 0.009
x1 = 0.9012	0.57 ± 0.008

O=C1CCCC1 + CCCCCCO
303.15 K, 101 kPa
Conditions	viscosity [mPa·s]
x1 = 0.0985	2.896 ± 0.026
x1 = 0.2605	2.093 ± 0.019
x1 = 0.4224	1.641 ± 0.015
x1 = 0.5807	1.333 ± 0.012
x1 = 0.7406	1.132 ± 0.01
x1 = 0.9025	1.016 ± 0.009

CCCCCCCC[P+](CC)(CC)CC.N#Cc1ccc[n-]1 + OCC(O)CO
viscosity [mPa·s], 100 kPa
Conditions	293.15 K	298.15 K	303.15 K	313.15 K
x1 = 0.031	1533 ± 240	966 ± 150	621 ± 92	248 ± 36
x1 = 0.071	1550 ± 240	996 ± 150	617 ± 92	248 ± 36
x1 = 0.109	1457 ± 220	916 ± 140	581 ± 86	228 ± 33
x1 = 0.16	1330 ± 200	825 ± 120	540 ± 80	240 ± 35
x1 = 0.222	1133 ± 170	699 ± 100	428 ± 63	198 ± 29
x1 = 0.297	903 ± 140	584 ± 87	405 ± 59	187 ± 27
x1 = 0.393	672 ± 100	437 ± 65	289 ± 43	150 ± 22
x1 = 0.457	608 ± 91	408 ± 60	274 ± 40	138 ± 20
x1 = 0.532	545 ± 81	368 ± 54	251 ± 36	134 ± 19
x1 = 0.615	519 ± 77	357 ± 52	245 ± 35	129 ± 18
x1 = 0.742	434 ± 64	291 ± 42	197 ± 28	105 ± 15
x1 = 0.833	372 ± 54	252 ± 36	167 ± 24	89 ± 13

CC(O)CO (configuration not stated) + CCO
Conditions	viscosity [mPa·s]
298.15 K, 101 kPa, x1 = 0.1	1.55 ± 0.041
298.15 K, 101 kPa, x1 = 0.2	2.215 ± 0.06
298.15 K, 101 kPa, x1 = 0.3	3.185 ± 0.086
298.15 K, 101 kPa, x1 = 0.4	4.612 ± 0.13
298.15 K, 101 kPa, x1 = 0.5	6.698 ± 0.18
298.15 K, 101 kPa, x1 = 0.6	9.706 ± 0.27
298.15 K, 101 kPa, x1 = 0.7	14.06 ± 0.4
298.15 K, 101 kPa, x1 = 0.8	20.27 ± 0.59
298.15 K, 101 kPa, x1 = 0.9	30.07 ± 0.89
303 K, 100 kPa, x1 = 0.6	6.734 ± 0.054
308 K, 100 kPa, x1 = 0.6	5.729 ± 0.046
308.15 K, 101 kPa, x1 = 0.1	1.24 ± 0.033
308.15 K, 101 kPa, x1 = 0.2	1.719 ± 0.046
308.15 K, 101 kPa, x1 = 0.3	2.409 ± 0.064
308.15 K, 101 kPa, x1 = 0.4	3.377 ± 0.09
308.15 K, 101 kPa, x1 = 0.5	4.699 ± 0.13
308.15 K, 101 kPa, x1 = 0.6	6.604 ± 0.18
308.15 K, 101 kPa, x1 = 0.7	9.261 ± 0.25
308.15 K, 101 kPa, x1 = 0.8	12.96 ± 0.35
308.15 K, 101 kPa, x1 = 0.9	18.15 ± 0.5
313 K, 100 kPa, x1 = 0.6	5.069 ± 0.039
318 K, 100 kPa, x1 = 0.6	4.427 ± 0.036
318.15 K, 101 kPa, x1 = 0.1	0.9282 ± 0.025
318.15 K, 101 kPa, x1 = 0.2	1.317 ± 0.035
318.15 K, 101 kPa, x1 = 0.3	1.854 ± 0.049
318.15 K, 101 kPa, x1 = 0.4	2.576 ± 0.069
318.15 K, 101 kPa, x1 = 0.5	3.527 ± 0.094
318.15 K, 101 kPa, x1 = 0.6	4.797 ± 0.13
318.15 K, 101 kPa, x1 = 0.7	6.46 ± 0.18
318.15 K, 101 kPa, x1 = 0.8	8.621 ± 0.24
318.15 K, 101 kPa, x1 = 0.9	11.43 ± 0.32

O=C(CO)[C@@H](O)[C@H](O)[C@H](O)CO + CS(C)=O
viscosity [mPa·s], 101 kPa
Conditions	x1 = 0.04904	x1 = 0.07411	x1 = 0.106	x1 = 0.1269	x1 = 0.151	x1 = 0.1722	x1 = 0.1979	x1 = 0.2243
298.15 K	3.98 ± 0.2	6.037 ± 0.2	10.34 ± 0.21	14.99 ± 0.21	23.48 ± 0.24	35.39 ± 0.3	59.46 ± 0.44	104.7 ± 1.4
308.15 K	3.096 ± 0.2	4.529 ± 0.2	7.33 ± 0.2	10.21 ± 0.21	15.13 ± 0.22	21.64 ± 0.24	34.14 ± 0.3	55.88 ± 0.42
318.15 K	2.48 ± 0.2	3.507 ± 0.2	5.442 ± 0.2	7.283 ± 0.2	10.35 ± 0.21	14.17 ± 0.22	21.19 ± 0.24	32.62 ± 0.3

ClC=C(Cl)Cl + CC(C)CCO
303.15 K, 101.3 kPa
Conditions	viscosity [mPa·s]
x1 = 0.0921	2.553 ± 0.032
x1 = 0.2031	2.01 ± 0.025
x1 = 0.2728	1.705 ± 0.022
x1 = 0.4124	1.237 ± 0.016
x1 = 0.5054	1.027 ± 0.014
x1 = 0.6208	0.85 ± 0.012
x1 = 0.7016	0.758 ± 0.01
x1 = 0.814	0.666 ± 0.009
x1 = 0.9047	0.597 ± 0.009

CC(CCO)CC(C)(C)C (configuration not stated) + CCOC(C)=O
viscosity [mPa·s], 101.33 kPa
Conditions	x2 = 0.1539	x2 = 0.2904	x2 = 0.4122	x2 = 0.5219	x2 = 0.6208	x2 = 0.7106	x2 = 0.7925	x2 = 0.8677	x2 = 0.9364
298.15 K	5.471 ± 0.23	3.367 ± 0.15	2.072 ± 0.095	1.443 ± 0.068	1.075 ± 0.053	0.879 ± 0.044	0.672 ± 0.035	0.514 ± 0.028	0.486 ± 0.027
303.15 K	4.696 ± 0.2	2.968 ± 0.13	1.837 ± 0.085	1.305 ± 0.062	0.975 ± 0.048	0.789 ± 0.04	0.631 ± 0.034	0.526 ± 0.029	0.475 ± 0.027
308.15 K	4.016 ± 0.18	2.452 ± 0.11	1.646 ± 0.077	1.181 ± 0.057	0.934 ± 0.047	0.724 ± 0.038	0.586 ± 0.032	0.495 ± 0.028	0.439 ± 0.025
